“And” between values parts separate entries of the source, which are not always exact repeats. Equal values may be shown once.
What was measured:
MMP-9 = settings: cited from earlier work
MMP-2 = settings: cited from earlier work
MMP-8 = settings: cited from earlier work
soluble MMP-9 = settings: cited from earlier work
[1] = tested on: demineralized dentin collagen; settings: cited from earlier work
[2] = tested on: total endogenous MMP activity of dentin (matrix-bound MMPs); format: biochemical, human; settings: 1.0% w/v aqueous BAC applied for 60 s; relative to untreated control with 0% inhibition; mean (SD), n = 10
MMP = settings: cited from earlier work

In the case of `[H]/N=C(\N/C(=N/[H])NCCCCCCNC(=N)NC(=N)Nc1ccc(Cl)cc1)Nc1ccc(Cl)cc1` [CHX, Chlorhexidine], the “Inhibition of MMP-9” value (MMP-9) is given as “potent inhibitor”, the “Inhibition of MMP-2” value (MMP-2) is given as “potent inhibitor” and the “Inhibition of MMP-8” value (MMP-8) is given as “potent inhibitor”.

In the case of `C=C(C)C(=O)OCCCCCCCCCCCC[n+]1ccccc1.[Br-]` [MDPB, 12-methacryloyloxydodecylpyridinium bromide], the “Inhibition of soluble MMP-9” value (soluble MMP-9) is listed as “effectively inhibited soluble MMP-9 as or more effectively as Galardin” and the “Inhibition of degradation of demineralized dentin collagen” value [1] is listed as “almost completely inhibited”.

In the case of Benzalkonium chloride [BAC], the “% MMP inhibition (total MMP activity)” value [2] is listed as 54% and 54.2 (9.0) ^C %, the MMP inhibition (MMP; 1.0% BAC) is listed as 55–66% and the “MMP inhibition relative to 1.0% BAC” value (MMP; 2.0% BAC) is listed as “did not yield additional MMP inhibition”.
